As usually defined, the IC50 is the concentration that inhibits the measured activity by half.

The text below walks through data of US20240300937A1, “Substituted 6-(Pyrimidin-4-yl)Quinoline Compounds as Cyclin Dependent Kinase Inhibitors” (BeiGene, Ltd., priority 2022, published 2024).

Test [1] addresses CDK6/Cyclin D3 (Homo sapiens (Human), UniProt Q00534). Briefly: CDK6/Cyclin D3 kinase TR-FRET inhibition assay. The following applies: 1 mM ATP, Rb (Ser780)-biotin substrate, read-out: CDK6D3 IC50. Format: biochemical. Here is the method:
(§1) Compounds disclosed herein were tested for inhibition of CDK4/Cyclin D1 or CDK6/Cyclin D3 kinase in an assay based on the time-resolved fluorescence-resonance energy transfer (TR-FRET) methodology. The assay was carried out in 384-well low volume black plates in a reaction mixture containing CDK4/Cyclin D1 or CDK6/Cyclin D3, 1 mM ATP, 0.15 μM Rb (Ser780)-biotin substrate and 0-10 μM compound in buffer containing 50 mM HEPES pH7.0, 0.02% NaN3, 0.01% BSA, 0.1 mM Orthovanadate, 50 mM MgCl2, 1 mM DTT and 0.005% Tween-20. The kinase was incubated with compound for 60 minutes at room temperature and the reaction was initiated by the addition of ATP and Rb (Ser780)-biotin substrate. After reaction at room temperature for 120 minutes, an equal volume of stop/detection solution was added according to the manufacture's instruction (Cisbio Bioassays). The stop/detection solution contained Streptavidin-XL665 and Anti-pRb (Ser780) mAb-Eu Cryptate in Detection buffer (Cisbio Bioassays). Plates were incubated at room temperature for 60 minutes, and the TR-FRET signals (ex337 nm, em665 nm/620 nm) were recorded on a PHERAstar FSX plate reader (BMG Labtech). The inhibition percentage of CDK4/Cyclin D1 or CDK6/Cyclin D3 kinase activity in presence of increasing concentrations of compounds was calculated based on the ratio of fluorescence at 665 nm to that at 620 nm. The IC50 for each compound was derived from fitting the data to the four-parameter logistic equation by Dotmatics.
On the technique in general: TR-FRET usually uses a lanthanide donor and a delayed reading to cut background.

In test [2] the target is CDK4/Cyclin D1 (Homo sapiens (Human), UniProt P11802). The test can be described thus: CDK4/Cyclin D1 kinase TR-FRET inhibition assay. The settings on record: 1 mM ATP, Rb (Ser780)-biotin substrate, read-out: CDK4D1 IC50. Format: biochemical. As to the method:
as §1

CDK6/Cyclin D3, sequence (Q00534 whole entry): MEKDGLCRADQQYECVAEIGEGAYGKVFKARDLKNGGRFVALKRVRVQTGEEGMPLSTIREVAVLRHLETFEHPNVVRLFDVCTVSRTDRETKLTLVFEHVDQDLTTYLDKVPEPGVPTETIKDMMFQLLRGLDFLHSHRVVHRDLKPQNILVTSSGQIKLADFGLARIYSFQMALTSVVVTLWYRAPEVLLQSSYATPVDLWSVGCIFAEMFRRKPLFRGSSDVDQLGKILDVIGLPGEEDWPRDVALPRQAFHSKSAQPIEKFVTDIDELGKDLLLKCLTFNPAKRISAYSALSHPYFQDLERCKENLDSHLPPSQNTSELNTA
CDK6/Cyclin D3, sequence (P30281 whole entry partner): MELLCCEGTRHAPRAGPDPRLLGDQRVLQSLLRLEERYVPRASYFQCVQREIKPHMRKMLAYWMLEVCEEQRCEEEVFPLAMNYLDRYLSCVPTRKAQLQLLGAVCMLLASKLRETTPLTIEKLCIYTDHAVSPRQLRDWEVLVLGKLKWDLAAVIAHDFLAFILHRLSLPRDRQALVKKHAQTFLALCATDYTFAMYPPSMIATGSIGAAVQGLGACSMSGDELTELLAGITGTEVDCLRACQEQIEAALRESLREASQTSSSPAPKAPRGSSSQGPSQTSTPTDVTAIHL
CDK4/Cyclin D1, sequence (P11802 whole entry): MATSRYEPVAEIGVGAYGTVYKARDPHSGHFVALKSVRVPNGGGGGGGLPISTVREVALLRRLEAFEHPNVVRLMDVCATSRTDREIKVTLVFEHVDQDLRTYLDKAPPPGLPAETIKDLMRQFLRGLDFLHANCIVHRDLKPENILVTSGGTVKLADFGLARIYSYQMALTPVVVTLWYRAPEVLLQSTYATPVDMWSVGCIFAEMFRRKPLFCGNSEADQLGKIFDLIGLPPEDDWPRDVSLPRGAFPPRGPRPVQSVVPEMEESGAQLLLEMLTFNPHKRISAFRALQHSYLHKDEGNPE
CDK4/Cyclin D1, sequence (P24385 whole entry partner): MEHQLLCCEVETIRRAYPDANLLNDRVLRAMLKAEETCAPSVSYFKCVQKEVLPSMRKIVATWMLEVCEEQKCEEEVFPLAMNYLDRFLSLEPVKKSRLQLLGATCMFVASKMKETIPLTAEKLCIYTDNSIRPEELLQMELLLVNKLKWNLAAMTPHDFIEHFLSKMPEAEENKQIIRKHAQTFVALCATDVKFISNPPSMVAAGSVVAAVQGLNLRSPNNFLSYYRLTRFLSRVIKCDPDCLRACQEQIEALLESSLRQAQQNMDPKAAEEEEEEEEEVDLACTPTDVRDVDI

Consider `COc1ccc(NCc2cnc3ccc(-c4nc(N[C@@H]5CCOC[C@H]5O)ncc4F)cc3c2C(C)C)cc1` [Example 46, (3S,4R)-4-((5-fluoro-4-(4-isopropyl-3-(((4-methoxyphenyl)amino)methyl)quinolin-6-yl)pyrimidin-2-yl)amino)tetrahydro-2H-pyran-3-ol], for which the IC50 in test [1] came out at 1040 nM; in test [2], 65 nM.

As to `CC(C)c1c(CNC[C@@H]2CCOC2)cnc2ccc(-c3nc(N[C@@H]4CCOC[C@H]4O)ncc3F)cc12` [Example 33, (3S,4R)-4-((5-fluoro-4-(4-isopropyl-3-(((((S)-tetrahydrofuran-3-yl)methyl)amino)methyl)quinolin-6-yl)pyrimidin-2-yl)amino)tetrahydro-2H-pyran-3-ol], the half-maximal inhibitory concentration (IC50) in test [1] turned out to be 792 nM; in test [2] it was 22 nM.

Turning to `CC(C)c1c(CN2CC[C@@H](F)C2)cnc2ccc(-c3nc(N[C@@H]4CCOC[C@H]4O)ncc3F)cc12` [Example 23, (3S,4R)-4-((5-fluoro-4-(3-(((R)-3-fluoropyrrolidin-1-yl)methyl)-4-isopropylquinolin-6-yl)pyrimidin-2-yl)amino)tetrahydro-2H-pyran-3-ol], the half-maximal inhibitory concentration (IC50) in test [1] is 361 nM; in test [2], 19 nM.

As to `Cc1nc2ccc(-c3nc(N[C@@H]4CCOC[C@H]4O)ncc3F)cc2c(C(C)C)c1CO` [Example 15, (3S,4R)-4-((5-fluoro-4-(3-(hydroxymethyl)-4-isopropyl-2-methylquinolin-6-yl)pyrimidin-2-yl)amino)tetrahydro-2H-pyran-3-ol], the figures for the IC50 in test [1] and in test [2] were 559 nM and 43 nM, respectively.

Regarding `CC(C)c1c(CN[C@H]2CCOC2)cnc2ccc(-c3nc(N[C@@H]4CCOC[C@H]4O)ncc3F)cc12` [Example 32, (3S,4R)-4-((5-fluoro-4-(4-isopropyl-3-((((S)-tetrahydrofuran-3-yl)amino)methyl)quinolin-6-yl)pyrimidin-2-yl)amino)tetrahydro-2H-pyran-3-ol], the half-inhibitory concentration (IC50) in test [1] is 484 nM; in test [2], 11 nM.

As to `CC(C)c1c(CN2CCCC2=O)cnc2ccc(-c3nc(N[C@@H]4CCOC[C@H]4O)ncc3F)cc12` [Example 12, 1-((6-(5-fluoro-2-(((3S,4R)-3-hydroxytetrahydro-2H-pyran-4-yl)amino)pyrimidin-4-yl)-4-isopropylquinolin-3-yl)methyl)pyrrolidin-2-one], the values for the 50% inhibitory concentration (IC50) in test [1] and in test [2] were 323 nM and 19 nM, respectively.

As for `CC(C)c1c(CN2CCC[C@@H](C#N)C2)cnc2ccc(-c3nc(N[C@@H]4CCOC[C@H]4O)ncc3F)cc12` [Example 62, (R)-1-((6-(5-fluoro-2-(((3S,4R)-3-hydroxytetrahydro-2H-pyran-4-yl)amino)pyrimidin-4-yl)-4-isopropylquinolin-3-yl)methyl)piperidine-3-carbonitrile], the figures for the IC50 in test [1] and in test [2] were 572 nM and 11 nM, respectively.

Consider `CC(C)c1c(CNC[C@H]2CCCO2)cnc2ccc(-c3nc(N[C@@H]4CCOC[C@H]4O)ncc3F)cc12` [Example 24, (3S,4R)-4-((5-fluoro-4-(4-isopropyl-3-(((((R)-tetrahydrofuran-2-yl)methyl)amino)methyl)quinolin-6-yl)pyrimidin-2-yl)amino)tetrahydro-2H-pyran-3-ol], for which the values for the IC50 in test [1] and in test [2] were 620 nM and 20 nM, respectively.

Regarding `CC(C)c1c(C(C)(C)O)cnc2cc(Cl)c(-c3nc(N[C@@H]4CCOC[C@H]4O)ncc3F)cc12` [Example 70, (3S,4R)-4-((4-(7-chloro-3-(2-hydroxypropan-2-yl)4-isopropylquinolin-6-yl)-5-fluoropyrimidin-2-yl)amino)tetrahydro-2H-pyran-3-ol], the IC50 in test [1] was found to be 508 nM; in test [2], 31 nM.

`CC(C)c1c(CN2C[C@H]3C[C@@H]2CO3)cnc2ccc(-c3nc(N[C@@H]4CCOC[C@H]4O)ncc3F)cc12` [Example 49, (3S,4R)-4-((4-(3-(((1R,4R)-2-oxa-5-azabicyclo[2.2.1]heptan-5-yl)methyl)-4-isopropylquinolin-6-yl)-5-fluoropyrimidin-2-yl)amino)tetrahydro-2H-pyran-3-ol]: the values for the concentration for half-maximal inhibition (IC50) in test [1] and in test [2] were 392 nM and 14 nM, respectively.

Regarding `CC(C)c1c(CN2[C@H](C)COC[C@@H]2C)cnc2ccc(-c3nc(N[C@@H]4CCOC[C@H]4O)ncc3F)cc12` [Example 68], the IC50 amounted to 395 nM in test [1] and 8.7 nM in test [2].

On to `CC(C)c1c(C2(O)CCCC2)cnc2ccc(-c3nc(N[C@@H]4CCOC[C@H]4O)ncc3F)cc12` [Example 50, (3S,4R)-4-((5-fluoro-4-(3-(1-hydroxycyclopentyl)-4-isopropylquinolin-6-yl)pyrimidin-2-yl)amino)tetrahydro-2H-pyran-3-ol], for which the values for the half-maximal inhibitory concentration (IC50) in test [1] and in test [2] were 185 nM and 4.4 nM, respectively.

As to `CC(C)c1c(CNC2CC(F)(F)C2)cnc2c(F)cc(-c3nc(N[C@@H]4CCOC[C@H]4O)ncc3F)cc12` [Example 52, (3S,4R)-4-((4-(3-(((3,3-difluorocyclobutyl)amino)methyl)-8-fluoro-4-isopropylquinolin-6-yl)-5-fluoropyrimidin-2-yl)amino)tetrahydro-2H-pyran-3-ol], the IC50 in test [1] is 240 nM; in test [2], 10 nM.

In the case of `CC(C)c1c(CN2C[C@@H](O)[C@H](F)C2)cnc2ccc(-c3nc(N[C@@H]4CCOC[C@H]4O)ncc3F)cc12` [Example 54, (3R,4R)-4-fluoro-1-((6-(5-fluoro-2-(((3S,4R)-3-hydroxytetrahydro-2H-pyran-4-yl)amino)pyrimidin-4-yl)-4-isopropylquinolin-3-yl)methyl)pyrrolidin-3-ol], the IC50 in test [1] is 361 nM; in test [2] it was 19 nM.

`CC(C)c1c(CN2CCOC[C@H]2C)cnc2ccc(-c3nc(N[C@@H]4CCOC[C@H]4O)ncc3F)cc12` [Example 58, (3S,4R)-4-((5-fluoro-4-(4-isopropyl-3-(((R)-3-methylmorpholino)methyl)quinolin-6-yl)pyrimidin-2-yl)amino)tetrahydro-2H-pyran-3-ol]: the IC50 in test [1] was determined as 406 nM; in test [2] it was 14 nM.

Regarding `CC(C)c1c(CN2CCOCC2=O)cnc2ccc(-c3nc(N[C@@H]4CCOC[C@H]4O)ncc3F)cc12` [Example 13, 4-((6-(5-fluoro-2-(((3S,4R)-3-hydroxytetrahydro-2H-pyran-4-yl)amino)pyrimidin-4-yl)-4-isopropylquinolin-3-yl)methyl)morpholin-3-one], the half-maximal inhibitory concentration (IC50) was 464 nM in test [1] and 16 nM in test [2].

Consider `Cc1cnc2ccc(-c3nc(N[C@@H]4CCOC[C@H]4O)ncc3F)cc2c1C(C)C` [Example 6, (3S,4R)-4-((5-fluoro-4-(4-isopropyl-3-methylquinolin-6-yl)pyrimidin-2-yl)amino)tetrahydro-2H-pyran-3-ol], for which the IC50 was found to be 158 nM in test [1] and 9.3 nM in test [2].

With `CNC(=O)c1cnc2ccc(-c3nc(N[C@@H]4CCOC[C@H]4O)ncc3F)cc2c1C(C)C` [Example 1, 6-(5-fluoro-2-(((3S,4R)-3-hydroxytetrahydro-2H-pyran-4-yl)amino)pyrimidin-4-yl)-4-isopropyl-N-methyl quinoline-3-carboxamide], the half-inhibitory concentration (IC50) amounted to 670 nM in test [1] and 67 nM in test [2].

Take `CC(C)c1c(CNC2CC(F)(F)C2)cnc2ccc(-c3nc(N[C@@H]4CCOC[C@H]4O)ncc3F)cc12` [Example 20, (3S,4R)-4-((4-(3-(((3,3-difluorocyclobutyl)amino)methyl)-4-isopropylquinolin-6-yl)-5-fluoropyrimidin-2-yl)amino)tetrahydro-2H-pyran-3-ol]: the figures for the IC50 in test [1] and in test [2] were 600 nM and 12 nM, respectively.

For `Cc1cc(C(C)C)c2cc(-c3nc(N[C@@H]4CCOC[C@H]4O)ncc3Cl)ccc2n1` [Example 5, (3S,4R)-4-((5-chloro-4-(4-isopropyl-2-methylquinolin-6-yl)pyrimidin-2-yl)amino)tetrahydro-2H-pyran-3-ol], the IC50 in test [1] amounted to 810 nM; in test [2], 108 nM.

On to `CC(C)c1c([C@H](C)O)cnc2ccc(-c3nc(N[C@@H]4CCOC[C@H]4O)ncc3F)cc12` [Example 41, (3S,4R)-4-((5-fluoro-4-(3-((S)-1-hydroxyethyl)-4-isopropylquinolin-6-yl)pyrimidin-2-yl)amino)tetrahydro-2H-pyran-3-ol], for which the IC50 in test [1] was found to be 170 nM; in test [2] it was 10 nM.

As for `Cc1c(-c2nc(N[C@@H]3CCOC[C@H]3O)ncc2F)ccc2ncc(CO)c(C(C)C)c12` [Example 120, (3S,4R)-4-((5-fluoro-4-(3-(hydroxymethyl)-4-isopropyl-5-methylquinolin-6-yl)pyrimidin-2-yl)amino)tetrahydro-2H-pyran-3-ol], the half-inhibitory concentration (IC50) was determined as 149 nM in test [1] and 23.5 nM in test [2].

As to `Cc1cc(C(C)C)c2cc(-c3nc(N[C@@H]4CCOC[C@H]4O)ncc3F)ccc2n1` [Example 10, (3S,4R)-4-((5-fluoro-4-(4-isopropyl-2-methylquinolin-6-yl)pyrimidin-2-yl)amino)tetrahydro-2H-pyran-3-ol], the concentration for half-maximal inhibition (IC50) in test [1] amounted to 924 nM; in test [2], 77 nM.
